Results: article PMC9573605, “Exploring Nitric Oxide (NO)-Releasing Celecoxib Derivatives as Modulators of Radioresponse in Pheochromocytoma Cells” (Molecules, 2022)

Columns and labels:
[1] = tested on: MPC-HIF2α tumor spheroids; test: Spheroid regrowth assay with [177Lu]LuCl3 treatment; type: cell-based, mouse; conditions: 10 µM compound with 0.25 MBq [177Lu]LuCl3 for six days; for growth response (spheroid size): compared to controls; for 14-day regrowth probability: controls 50%
Text: Radionuclide therapy is a fast-evolving treatment modality gaining more importance in treating cancer. For treatment of pheochromocytomas and paragangliomas, in particular, somatostatin type 2 receptor-targeted radionuclide therapy with [^177Lu]Lu-(Tyr^3)octreotate is currently investigated in clinical controlled trials (e.g., NCT04029428, NCT03923257, NCT03206060). To assess the additional effects of NO-COXIBs on the outcome of Lu-177 therapy, a simplified in vitro setup was used here, where MPC-HIF2α tumor spheroids were treated with 10 µM of the compounds and simultaneously 0.25 MBq of [^177Lu]LuCl3 for six days.
(§1) Genetically modified mouse pheochromocytoma (MPC) cells expressing a codon-optimized Epas1 gene (encoding HIF2α) were cultured as three-dimensional tumor spheroids as published elsewhere. External X-ray beam radiation treatment and [^177Lu]LuCl3 radionuclide treatment was performed as reported previously with some modifications. In brief, spheroids were irradiated with a 200 kV photon beam using a Maxishot X-ray system equipped with a Y.TU/320-D03 tube (YXLON, Hamburg, Germany), growth of spheroids (n = 6) with diameters between 300−400 µm was measured in response to one fixed radiation dose, 15 Gy for X-ray treatment, and 0.25 MBq/mL of [^177Lu]LuCl3 for radionuclide treatment corresponding to a cumulative dose of approximately 2 Gy delivered for 6 days. The applied radiation doses were selected based on the half-maximal spheroid control doses (SCD50) as previously determined for MPC HIF2α spheroids by us. Spheroids were considered as regrown at 100 µm increase in diameter compared to treatment start or at a diameter growth rate of 15 µm per day. Results are reported as spheroid regrowth probability (%).
(§2) Figure 5 Effects of NO-COXIBs on radiation treatments of MPC-HIF2α tumor spheroids. (A) Growth responses to X-ray treatment with a radiation dose of 15 Gy in combination with 10 µM NO-COXIBs added to the medium at indicated time points before or after irradiation. (B) Growth responses to [^177Lu]LuCl3 treatment with an initial activity concentration of 0.25 MBq/mL in combination with NO-COXIBs; log2 fold changes in diameter indicate the number of diameter doublings compared to treatment start; 14-day regrowth probability indicates the fraction of spheroids able to regrow within 14 days after treatment start; (black arrows) time point or duration of radiation treatment; (w/o) vehicle controls are shown as black lines; (Ce) celecoxib.

[2] = Lipophilicity logD7.4 by HPLC method; type: physicochemical; conditions: HPLC retention on ODP-50 4B column (Shodex Asahipak), phosphate buffer pH 7.4
Method: The lipophilicity of all synthesized compounds was determined as logD7.4, HPLC value by an HPLC method originally described by Donovan and Pescatore.
The logD7.4HPLC value was determined as previously reported by us utilizing an HPLC method originally described by Donovan and Pescatore.

[3] = tested on: MPC-HIF2α tumor spheroids; test: Spheroid regrowth assay with external X-ray irradiation; type: cell-based, mouse; conditions: X-ray 15 Gy; 10 µM compound added 2 h post irradiation; controls 83%
Method: As a first pilot study, growth responses of MPC-HIF2α spheroids were investigated after two different radiation treatments such as single-dose external beam irradiation (X-ray) and incubation with [^177Lu]LuCl3, respectively. NO-COXIBs were tested at 10 µM for additional effects on radiation treatments against a vehicle-treated control (w/o) and celecoxib (Ce).
The log2-fold change in spheroid diameter is given as a standardized parameter for spheroid growth, which is positive for growing, near zero for stagnating and negative for shrinking spheroids. Furthermore, regrowth probabilities are given as a parameter to compare how many of the overall studied spheroids in one group recovered within 14 days. Radioprotective effects occurred when compounds were added 2 h before irradiation. In this setup, all compounds accelerated the increase in spheroid size during the regrowth phase compared to controls (Figure 5A, upper panel). Regrowth probabilities of 67–100% under NO-COXIB treatment remained however similar to controls (83%). Radiosensitizing effects occurred when compounds were added 2 h post irradiation. In this setup, all compounds decelerated the increase in spheroid size during the regrowth phase compared to controls.
as §1, §2

[4] = Conversion in NO-assay buffer followed by UPLC; type: physicochemical; conditions: 37 °C
Method: The time-dependent degradation behavior of compounds 4f, 5a–f, and 6a–d as well as celecoxib was followed by UPLC analysis over a time course of 8 days (Figure 4). For that, compounds were incubated at 37 °C in the presence or absence of cysteine in the assay buffer used for the Griess assay. Samples were withdrawn at distinct time points (1, 5, 23, 47, 70, and 191 h), diluted into a mixture of acetonitrile/water, and analyzed.
The time-dependent conversion of NO-COXIBs 5a–f and 6a–d as well as reference compounds 4f and celecoxib in the presence or absence of cysteine in assay buffer was investigated by following the degradation of intact compound and identification of selected degradation products by UPLC. For that, samples were incubated at 37 °C in the assay buffer in the presence or absence of cysteine and at the indicated time point; 5 µL assay buffer of each sample was withdrawn and diluted with 45 µL MeCN/water (50/50 v/v). The samples were thoroughly vortexed and then subjected to UPLC analysis. All samples of one time point were analyzed within a total analysis time of approximately 2.5 h. Conversion was monitored at 254 nm using the following UPLC system: column Aquity UPLC® HSS C18 column (Waters Corporation, Milford, MA, USA; 100 × 2.1 mm, 1.8 µm, 130 Å), UPLC H-Class (Waters Corporation, Milford, MA, USA): quaternary gradient pump QSM, autosampler FTN, column heater CHA, and diode array detector PDAeλ, γ detector Gabi Star (Raytest Isotopenmeßgeräte GmbH, Straubenhardt, Germany), flow rate 0.4 mL/min, eluent: (A): 0.1% acetic acid in MeCN/MeOH 1/1/(B): 0.1% acetic acid in H2O; gradient: t0min 45/55–t0.5min 45/55–t5.5min 95/5–t7.0min 95/5–t7.2min 45/55–t8.5min 45/55). For the identification of degradation products, samples taken after 24 h were additionally subjected to HPLC-HRMS analysis using HPLC system 6. In brief, the NO-COXIBs were converted to the respective hydroxymethyl-substituted compounds and in the presence of cysteine additionally to the cysteine adduct, which could be identified by the respective Δm/z shifts. A detailed comparison of calculated and found m/z-signals is given in Supplementary Material Table S1, and copies of HPLC-HRMS chromatograms and selected spectra are given in Supplementary Material Figures S56–S66.

| chromatographic logD [2] | intact compound ([4]; after 70 h, absence of cysteine) | intact compound ([4]; after 70 h, presence of cysteine) | intact compound ([4]; after 8 days (192 h)) [%] | Compound | growth response (spheroid size) [1] | 14-day regrowth probability [1] | 14-day regrowth probability [3] |
| --- | --- | --- | --- | --- | --- | --- | --- |
| 1.82 |  |  |  | CCC(=O)NS(=O)(=O)c1ccc(-n2nc(CO[N+](=O)[O-])cc2-c2ccc(C)cc2)cc1 [6c, {1-[4-(N-Propionylsulfamoyl)phenyl]-5-(p-tolyl)-1H-pyrazol-3-yl}methyl nitrate] | prevented spheroids from shrinking in size | 40% | 33–40% |
| 2.27 |  |  |  | CCC(=O)NS(=O)(=O)c1ccc(-n2nc(CO[N+](=O)[O-])c(Cl)c2-c2ccc(C)cc2)cc1 [6a, {4-Chloro-1-[4-(N-propionylsulfamoyl)phenyl]-5-(p-tolyl)-1H-pyrazol-3-yl}methyl nitrate] | prevented spheroids from shrinking in size |  | 33–40% |
| 1.55 | consumed | quantitatively consumed |  | CCC(=O)NS(=O)(=O)c1ccc(-n2nc(CO[N+](=O)[O-])cc2-c2ccc(OC)cc2)cc1 [6d, {5-(4-Methoxyphenyl)-1-[4-(N-propionylsulfamoyl)phenyl]-1H-pyrazol-3-yl}methyl nitrate] | prevented spheroids from shrinking in size | 100% | 33–40% |
| 2.1 |  |  |  | CCC(=O)NS(=O)(=O)c1ccc(-n2nc(CO[N+](=O)[O-])c(Cl)c2-c2ccc(OC)cc2)cc1 [6b, {4-Chloro-5-(4-methoxyphenyl)-1-[4-(N-propionylsulfamoyl)phenyl]-1H-pyrazol-3-yl}methyl nitrate] |  | 100% | 0% |

The next lines start with the compound.

| Compound | chromatographic logD [2] | intact compound ([4]; after 70 h, absence of cysteine) | intact compound ([4]; after 70 h, presence of cysteine) | intact compound ([4]; after 8 days (192 h)) [%] | growth response (spheroid size) [1] | 14-day regrowth probability [1] | 14-day regrowth probability [3] |
| --- | --- | --- | --- | --- | --- | --- | --- |
| COc1ccc(-c2c(Cl)c(CO[N+](=O)[O-])nn2-c2ccc(S(C)(=O)=O)cc2)cc1 [5d, {4-Chloro-5-(4-methoxyphenyl)-1-[4-(methylsulfonyl)phenyl]-1H-pyrazol-3-yl}methyl nitrate] | 4.02 |  |  |  | prevented spheroids from shrinking in size | 60–80% | 17% |
| COc1ccc(-c2cc(CO[N+](=O)[O-])nn2-c2ccc(S(N)(=O)=O)cc2)cc1 [5f, [5-(4-Methoxyphenyl)-1-(4-sulfamoylphenyl)-1H-pyrazol-3-yl]methyl nitrate] | 3.32 |  |  |  | prevented spheroids from shrinking in size | 60–80% | 17% |
| Cc1ccc(-c2c(Cl)c(CO[N+](=O)[O-])nn2-c2ccc(S(C)(=O)=O)cc2)cc1 [5c, {4-Chloro-1-[4-(methylsulfonyl)phenyl]-5-(p-tolyl)-1H-pyrazol-3-yl}methyl nitrate] | 4.04 |  |  | 57 | prevented spheroids from shrinking in size | 60–80% | 17% |
